# Where a name gives a salt, the structure may show the parent alone. Marks after values point to notes of the source that are not given here.
# Experiment: Plasma metabolite profiling (GC-MS, LC-MS, SPE-LC-MS) of rats dosed once daily over 28 days; treatment ratios versus untreated control
# Assay type: in vivo, rat
# Conditions: for DAG (C18:1,C18:2), ratio versus control / Serotonin (5-HT), ratio versus control: Table 8b
# Description: A group of each 5 male and female rats was dosed once daily with the indicated compounds (see Table 10, below for compounds, applied doses and administration details) over 28 days.
# Each dose group in the studies consisted of five rats per sex. Additional groups of each 5 male and female animals served as controls. Before starting the treatment period, animals, which were 62-64 days old when supplied, were acclimatized to the housing and environmental conditions for 7 days. All animals of the animal population were kept under the same constant temperature (20-24±3° C.) and the same constant humidity (30-70%). The animals of the animal population were fed ad libitum. The food to be used was essentially free of chemical or microbial contaminants. Drinking water was also offered ad libitum. Accordingly, the water was free of chemical and microbial contaminants as laid down in the European Drinking Water Directive 98/83/EG. The illumination period was 12 hours light followed by 12 hours darkness (12 hours light, from 6:00 to 18:00, and 12 hours darkness, from 18:00 to 6:00). […] The test substances (compounds) in the Tables 1 to 9 below were dosed and administered as described in the Table 10 above.
# In the morning of day 7, 14, and 28, blood was taken from the retro-orbital venous plexus from fasted anaesthetized animals. From each animal, 1 ml of blood was collected with EDTA as anticoagulant. The samples were centrifuged for generation of plasma. All plasma samples were covered with a N2 atmosphere and then stored at −80° C. until analysis.
# For mass spectrometry-based metabolite profiling analyses plasma samples were extracted and a polar and a non-polar (lipid) fraction was obtained. For GC-MS analysis, the non-polar fraction was treated with methanol under acidic conditions to yield the fatty acid methyl esters. Both fractions were further derivatised with O-methyl-hydroxyamine hydrochloride and pyridine to convert Oxogroups to O-methyloximes and subsequently with a silylating agent before analysis. In LC-MS analysis, both fractions were reconstituted in appropriate solvent mixtures. HPLC was performed by gradient elution on reversed phase separation columns. Mass spectrometric detection which allows target and high sensitivity MRM (Multiple Reaction Monitoring) profiling in parallel to a full screen analysis was applied as described in WO2003073464.
# Steroids and their metabolites were measured by online SPE-LC-MS (Solid phase extraction-LC-MS).
# Following comprehensive analytical validation steps, the data for each analyte were normalized against data from pool samples. These samples were run in parallel through the whole process to account for process variability. The significance of treatment group values specific for sex, treatment duration and metabolite was determined by comparing means of the treated groups to the means of the respective untreated control groups using WELCH-test and quantified with treatment ratios versus control and p-values.
# The identification of the most important biomarkers per toxicity pattern was done by a ranking of the analytes in the tables below. Therefore the metabolic changes in reference treatments of a given pattern (shown in the table) were compared with changes of the same metabolite in other unrelated treatments. […] The maximum absolute value of the respective TVALUE was taken to indicate the most important metabolite for the pattern.
# [1] = plasma, female rats, day 28, high dose, Table 6a
# [2] = plasma, female rats, day 28, high dose, Table 6b
# [3] = plasma, female rats, day 28, high dose, Table 8c
# [4] = plasma, female rats, day 28, high dose, Table 8d
# [5] = plasma, male rats, day 7, high dose, Table 8a
# [6] = plasma, male rats, day 7, high dose
# [7] = plasma, male rats, day 14, high dose, Table 8a
# [8] = plasma, male rats, day 14, high dose
# [9] = plasma, male rats, day 28, high dose, Table 8a
# [10] = plasma, male rats, day 28, high dose
# [11] = plasma, female rats, day 7, high dose, Table 4a
# [12] = plasma, female rats, day 7, high dose, Table 4b
# [13] = plasma, female rats, day 14, high dose, Table 4a
# [14] = plasma, female rats, day 14, high dose, Table 4b
# [15] = plasma, female rats, day 28, high dose, Table 4a
# [16] = plasma, female rats, day 28, high dose, Table 4b
compound,measurement,setting,value
CN1CCc2cccc3c2[C@H]1Cc1ccc(O)c(O)c1-3 [Apomorphine],"Isoleucine, ratio versus control",[1],1.25*
same,"14-Methylhexadecanoic acid, ratio versus control",[2],0.83*
same,"16-Methylheptadecanoic acid, ratio versus control",[2],0.66*
same,"17-Methyloctadecanoic acid, ratio versus control",[2],0.73*
same,"Ceramide (d18:1,C24:1), ratio versus control",[2],0.61*
same,"Choline plasmalogen No 03, ratio versus control",[2],0.89*
same,"Isopalmitic acid (C16:0), ratio versus control",[2],0.93
same,"Lactate, ratio versus control",[2],0.9
same,"Myristic acid (C14:0), ratio versus control",[2],0.9*
same,"Phosphatidylcholine (C16:0, C20:4), ratio versus control",[2],0.88*
same,"Phosphatidylcholine No 04, ratio versus control",[2],0.88*
same,"Pyruvate, ratio versus control",[2],0.33*
same,"3-Hydroxybutyrate, ratio versus control",[3],1.41 *
same,"Isoleucine, ratio versus control",[3],1.25 *
same,"TAG (C16:0,C18:2), ratio versus control",[3],2.31 *
same,"16-Methylheptadecanoic acid, ratio versus control",[4],0.66 *
same,"17-Methyloctadecanoic acid, ratio versus control",[4],0.73 *
same,"Ceramide (d18:1,C24:1), ratio versus control",[4],0.61 *
same,"Phosphatidylcholine (C16:0, C20:4), ratio versus control",[4],0.88 *
same,"Phosphatidylcholine (C18:0, C20:3), ratio versus control",[4],0.98 *
same,"Pyruvate, ratio versus control",[4],0.33 *
CNCCC(Oc1ccc(C(F)(F)F)cc1)c1ccccc1 (centres unmarked) [Fluoxetine hydrochloride],"Ceramide (d18:1,C24:1), ratio versus control",[5],1.77
same,"threo-Sphingosine, ratio versus control",[5],1.2
same,"DAG (C18:1,C18:2), ratio versus control",[6],0.65*
same,"Serotonin (5-HT), ratio versus control",[6],0.33*
same,"4-Hydroxysphinganine (t18:0, Phytosphingosine), total, ratio versus control",[7],1.51*
same,"Ceramide (d18:1,C24:1), ratio versus control",[7],1.91*
same,"DAG (C18:1,C18:2), ratio versus control",[8],0.64*
same,"Serotonin (5-HT), ratio versus control",[8],0.07*
same,"4-Hydroxysphinganine (t18:0, Phytosphingosine), total, ratio versus control",[9],2.57*
same,"Ceramide (d18:1,C24:1), ratio versus control",[9],1.85*
same,"threo-Sphingosine, ratio versus control",[9],2.2*
same,"DAG (C18:1,C18:2), ratio versus control",[10],0.63*
same,"Serotonin (5-HT), ratio versus control",[10],0.28*
same,"4-Hydroxysphinganine (t18:0, Phytosphingosine), total, ratio versus control","rat, in vivo",1.34*
same,"threo-Sphingosine, ratio versus control","rat, in vivo",1.45*
CN(C)CCCN1c2ccccc2Sc2ccc(Cl)cc21 [Chlorpromazine],"Ceramide (d18:1,C24:1), ratio versus control",[11],2.34*
same,"Docosapentaenoic acid (C22:cis[7,10,13,16,19]5), ratio versus control",[11],1.46
same,"Elaidic acid (C18:trans[9]1), ratio versus control",[11],1.46
same,"Myristic acid (C14:0), ratio versus control",[11],0.91
same,"Phosphatidylcholine (C16:0,C16:0), ratio versus control",[11],1.11*
same,"Phosphatidylcholine (C16:1,C18:2), ratio versus control",[11],1.38*
same,"TAG No 07, ratio versus control",[11],2.57*
same,"myo-Inositol, lipid fraction, ratio versus control",[11],1.42
same,"Creatinine, ratio versus control",[12],0.97
same,"Glutamate, ratio versus control",[12],0.83*
same,"Glycine, ratio versus control",[12],1.01
same,"Lactate, ratio versus control",[12],0.65*
same,"Myristic acid (C14:0), ratio versus control",[12],0.91
same,"Uric acid, ratio versus control",[12],0.62*
same,"Ceramide (d18:1,C24:1), ratio versus control",[13],1.44*
same,"Docosapentaenoic acid (C22:cis[7,10,13,16,19]5), ratio versus control",[13],1.17
same,"Galactose, lipid fraction, ratio versus control",[13],1
same,"Myristic acid (C14:0), ratio versus control",[13],1.04
same,"Phosphatidylcholine (C16:0,C16:0), ratio versus control",[13],1.3*
same,"Phosphatidylcholine (C16:1,C18:2), ratio versus control",[13],1.02
same,"TAG No 07, ratio versus control",[13],1.79
same,"myo-Inositol, lipid fraction, ratio versus control",[13],1.02
same,"Creatinine, ratio versus control",[14],0.86
same,"Glutamate, ratio versus control",[14],0.93*
same,"Lactate, ratio versus control",[14],0.97
same,"Myristic acid (C14:0), ratio versus control",[14],1.04
same,"Uric acid, ratio versus control",[14],0.84
same,"Ceramide (d18:1,C24:1), ratio versus control",[15],1.22
same,"Docosapentaenoic acid (C22:cis[7,10,13,16,19]5), ratio versus control",[15],1.18*
same,"Elaidic acid (C18:trans[9]1), ratio versus control",[15],0.98
same,"Galactose, lipid fraction, ratio versus control",[15],0.91
same,"Myristic acid (C14:0), ratio versus control",[15],0.89
same,"Phosphatidylcholine (C16:0,C16:0), ratio versus control",[15],1.14
same,"Phosphatidylcholine (C16:1,C18:2), ratio versus control",[15],1
same,"TAG No 07, ratio versus control",[15],2.1*
same,"myo-Inositol, lipid fraction, ratio versus control",[15],0.96
same,"Creatinine, ratio versus control",[16],0.84*
same,"Glutamate, ratio versus control",[16],1.05
same,"Glycine, ratio versus control",[16],1.01
same,"Lactate, ratio versus control",[16],0.94
same,"Myristic acid (C14:0), ratio versus control",[16],0.89*
same,"Uric acid, ratio versus control",[16],0.88
same,"Elaidic acid (C18:trans[9]1), ratio versus control","rat, in vivo",1.16*
same,"Galactose, lipid fraction, ratio versus control","rat, in vivo",1.34*
same,"Glycine, ratio versus control","rat, in vivo",1.06*
C#CCN(C)[C@H](C)Cc1ccccc1 [Selegiline hydrochloride],"3-Methoxytyrosine, ratio versus control",[1],1.38*
same,"Isoleucine, ratio versus control",[1],1.18*
same,"4-Hydroxy-3-methoxyphenylglycol (HMPG), ratio versus control",[2],0.3*
same,"14-Methylhexadecanoic acid, ratio versus control",[2],1.04
same,"16-Methylheptadecanoic acid, ratio versus control",[2],0.55*
same,"17-Methyloctadecanoic acid, ratio versus control",[2],0.57*
same,"Ceramide (d18:1,C24:1), ratio versus control",[2],0.48*
same,"Choline plasmalogen No 03, ratio versus control",[2],0.82
same,"Homovanillic acid (HVA), ratio versus control",[2],0.45*
same,"Isopalmitic acid (C16:0), ratio versus control",[2],0.69*
same,"Lactate, ratio versus control",[2],0.72*
same,"Myristic acid (C14:0), ratio versus control",[2],0.97
same,"Phosphatidylcholine (C16:0, C20:4), ratio versus control",[2],0.94*
same,"Phosphatidylcholine No 04, ratio versus control",[2],0.84
same,"Pyruvate, ratio versus control",[2],0.36*
same,"3-Hydroxybutyrate, ratio versus control",[3],1.29 *
same,"Isoleucine, ratio versus control",[3],1.18 *
same,"TAG (C16:0,C18:2), ratio versus control",[3],1.81 *
same,"16-Methylheptadecanoic acid, ratio versus control",[4],0.55 *
same,"17-Methyloctadecanoic acid, ratio versus control",[4],0.57 *
same,"Ceramide (d18:1,C24:1), ratio versus control",[4],0.48 *
same,"Phosphatidylcholine (C16:0, C20:4), ratio versus control",[4],0.94 *
same,"Phosphatidylcholine (C18:0, C20:3), ratio versus control",[4],0.92 *
same,"Pyruvate, ratio versus control",[4],0.36 *
CCC1(c2ccccc2)C(=O)NC(=O)NC1=O [Phenobarbital sodium],"3-Indoxylsulfate, ratio versus control","rat, in vivo",1.81 *
same,"Coenzyme Q9, ratio versus control","rat, in vivo",1.08 *
same,"Glutamate, ratio versus control","rat, in vivo",0.78 *
same,"Isoleucine, ratio versus control","rat, in vivo",1.12 *
same,"Ketoleucine, ratio versus control","rat, in vivo",0.88 *
same,"Malate, ratio versus control","rat, in vivo",0.69 *
same,"Pantothenic acid, ratio versus control","rat, in vivo",1.33 *
same,"Phosphate (inorganic and organic phosphates), ratio versus control","rat, in vivo",1.17 *
same,"Phosphatidylcholine (C16:0, C20:4), ratio versus control","rat, in vivo",0.99 *
same,"Phosphatidylcholine (C16:0, C22_6), ratio versus control","rat, in vivo",0.93 *
same,"Pyruvate, ratio versus control","rat, in vivo",0.73 *
same,"Valine, ratio versus control","rat, in vivo",1.15 *
same,"alpha-Tocopherol, ratio versus control","rat, in vivo",1.14 *
same,"myo-Inositol, ratio versus control","rat, in vivo",0.94 *

# — patent publication US20150031572A1, “MEANS AND METHODS FOR ASSESSING NEURONAL TOXICITY” (priority 2012, published 2015)
